Data: US12507721B2, “Ready-to-use parenteral nutrition formulation” (BAXTER INTERNATIONAL INC., priority 2021, dated 2025)

Assays:
[1] = Studies of vitamin B12 in lipid emulsions irrespective of oil source, pH or stabilizing agent; type: physicochemical
Description: (storage for 3 months at 40° C.), even though hydroxocobalamin seems to remain relatively stable for about 6 months at 40° C.

[2] = Selenium stability in trace element solutions with selenate, selenomethionine or selenite; conditions: for selenium concentration during storage: TE formulation pH 2.2, heat sterilized, conditions not optimized for DO, FIGS. 9-11
Description: (§1) Timepoint 0 corresponds to the results of TE dosage right after sterilization. […] Timepoints 1, 3 and 6 correspond to the results of TE dosage after 1 month, 3 months and 6 months storage at 40° C./25% RH.
as §1, §1
For the three tested solutions containing different forms of selenium, the selenium is mixed with other TE (Zn, Cu, Mn, F, I, Mo, Cr, Fe), which were introduced as chloride salts. The solutions were acidified to pH 2.2 using malic acid and underwent terminal heat sterilization prior to storage.

[3] = pediatric PN formulation stored at 25° C.; cited from earlier work
[4] = Storage of Glucose Batch 1 at 40° C./25% RH for 6 months; type: physicochemical; conditions: sterilization cycles of Example 7
Description: In a next step, the stability of vitamin B12 was examined in Glucose Batch 1 which seemed to be the most promising based on the results shown in Table 7. Accordingly, several bags were stored at 40° C./25% RH for 6 months (T6M). Batch Glucose 1 was analyzed at T6M to revisit the presence of vitamin B12 in either its cyanocobalamin or hydroxocobalamin form. In order to test the validity of the test, vitamins B1, B3 and B6 were tested together with vitamin B12 both after sterilization and then throughout shelf life.

[5] = Vitamin stability in 35% glucose solution during sterilization and storage; type: physicochemical; conditions: for Unsterilized T0 concentration / T1M40° C. concentration / T3M40° C. concentration / Cycle 3 T0 concentration / T6M40° C. concentration / Cycle 4 T0 concentration: 35% glucose solution; for T1M40° C. concentration: 1 month at 40° C.; for T3M40° C. concentration: 3 months at 40° C.; for Cycle 3 T0 concentration: C0 = 25 minutes; for Cycle 3 T0 concentration / Cycle 4 T0 concentration: after sterilization; for T6M40° C. concentration: 6 months at 40° C., B12 value (*) is the sum of cyanocobalamin and hydroxocobalamin; for Cycle 4 T0 concentration: C0 = 19 minutes
Description: For testing the stability of vitamin B12 in formulation as they are typically used in parenteral nutrition, a 35% glucose solution, a 14.2% amino acid formulation such as found, for example, in Olimel N9E (Baxter), and a 20% lipid emulsion such as found in Clinoleic 20% (Baxter) were supplemented with different vitamin combinations which always included vitamin B12. KCl was added into the glucose solution to understand if it has an effect on the stability of vitamin B12. Vitamin B1 was introduced as thiamin HCl. Ascorbyl palmitate was added to the lipid emulsion formulation as a stabilizing agent due to its antioxidant properties. In addition, two separate micellar solutions (“Vit A” and “Vit B”, see Table 9) comprising certain vitamins to be assessed with regard to degradation (B3, B6, B8, B9, B12, C) but formulated with different excipients as micellization agents were tested for vitamin B12 stability. Vit A consisted of a solution of mixed micelles with ascorbyl palmitate as a potential stability enhancer. Vit B was formulated with a mix of polysorbates, PEG and sorbitol to form micelles. The micellar solutions were prepared by mixing, under high speed, a solution composed of glycocholic acid and lecithins dissolved in water. In case of Vit B, the glycocholic acid and lecithin were replaced by PEG and polysorbate. All formulations were provided in standard flexible containers and overpouched with an aluminum overpouch for subsequent sterilization. For an overview over formulations and conditions see Table 9.
All samples were submitted to two different sterilization technologies. Steam sterilization targeting a F0=8 min was used for large volumes (400/800 ml, Cycle 2) and for small volumes (25/50 ml, Cycle 1) as lined out in Table 9 above. The same samples were sterilized by water spray sterilization with a serial tower continuous sterilization equipment with two different exposure times (Cycles 3 (25 min.) and 4 (19 min.)).
The vitamin recovery was then compared between the different sterilization cycles and formulations to understand the impact of the formulation and the sterilization technology used on their respective short- and long-term stability. Therefore, after sterilization, the samples were stored at 40° C./25% RH for 6 months to evaluate the recovery of vitamin B12 at T1M, T3M and T6M. Besides, backup samples were stored at 5° C. Finally, some samples were also stored at 25° C./40% RH to provide for real time stability data.

[6] = Impact of DO on selenium stability; mix of 9 trace elements; type: physicochemical; conditions: sterilized samples stored at 40° C., FIG. 5
Description: The impact of oxygen seems of major importance in the stability of selenite containing trace element formulations. […] To confirm this hypothesis, a regression test was performed between Se assay results and log(dissolved oxygen results). Only sterilized samples stored at 40° C. were considered as the sterilization and storage at high temperature seem to both increase the Se degradation.
The presence of oxygen promotes selenite stability. To ensure that it is not deleterious to another TE the stability of a mix of the 9 TE of interest (i.e. Zn, Cu, Cr, Mo, Mn, Fe, I, F & Se) was evaluated at pH 2.2 with 200 mM of malic acid (to ensure iodide stability) and stored in a glass bottle (so containing about 3 ppm of dissolved oxygen). The solution was heat sterilized and stored 6 months at 40° C. or 5° C. (T6M 40° C. and T6M 5° C., respectively).

[7] = 25 ml, Cycle 1 steam sterilization
[8] = 800 ml, Cycle 2 steam sterilization
[9] = 800 ml, Cycle 3 water spray sterilization
[10] = 800 ml, Cycle 4 water spray sterilization

C/C1=C2/[N-][C@H]([C@H](CC(N)=O)[C@@]2(C)CCC(=O)NC[C@@H](C)OP(=O)([O-])O[C@H]2[C@@H](O)[C@@H](n3cnc4cc(C)c(C)cc43)O[C@@H]2CO)[C@]2(C)N=C(/C(C)=C3N=C(/C=C4N=C1[C@@H](CCC(N)=O)C\4(C)C)[C@@H](CCC(N)=O)[C@]\3(C)CC(N)=O)[C@@H](CCC(N)=O)[C@]2(C)CC(N)=O.[Co+3].[OH-] [B12 HC, hydroxocobalamin]
time remaining relatively stable ([1]; at 40° C.): about 6 months

O=[Se](=O)(O)O [Selenate, sodium selenate]
selenium concentration during storage [2]: remained stable

O=C1O[C@H]([C@@H](O)CO)C(O)=C1O [vitamin C, ascorbic acid]
time after which instability was presented [3]: 48 h

Cc1ncc(C[n+]2csc(CCO)c2C)c(N)n1 [Batch B1, thiamine]
degradation during sterilization [4]: no significant degradation

Cc1ncc(CO)c(CO)c1O [Batch B6, pyridoxine]
degradation during sterilization [4]: no significant degradation | Unsterilized T0 concentration ([5]; 25 ml (Table 10A)): 6.40 mg/L | T1M40° C. concentration [5, 7]: 6.40 mg/L | T3M40° C. concentration [5, 7]: 6.50 mg/L | Unsterilized T0 concentration ([5]; 800 ml (Table 10B)): 6.40 mg/L | Unsterilized T0 concentration ([5]; 800 ml (Table 11A)): 6.61 mg/L | Unsterilized T0 concentration ([5]; 800 ml (Table 11B)): 6.61 mg/L | T1M40° C. concentration [5, 8]: 5.93 mg/L | T3M40° C. concentration [5, 8]: 6.00 mg/L | Cycle 3 T0 concentration [5, 9]: 6.23 mg/L | T3M40° C. concentration [5, 9]: 6.10 mg/L | T6M40° C. concentration [5, 9]: 6.04 mg/L | Cycle 4 T0 concentration [5, 10]: 6.27 mg/L | T3M40° C. concentration [5, 10]: 5.90 mg/L | T6M40° C. concentration [5, 10]: 6.03 mg/L

O=[Se](O)O [selenite, sodium selenite]
oxygen amount sufficient to ensure stability in the trace element formulation [6]: around 0.5 ppm | stability after three months ([2]; TE solution pH 2.2 (malic acid), terminal heat sterilization, DO not strictly controlled, analysis stopped): lack of stability

NC(=O)c1cccnc1 [Batch B3, Nicotinamide]
degradation during sterilization [4]: no significant degradation | Unsterilized T0 concentration ([5]; 25 ml (Table 10A)): 51.10 mg/L | T1M40° C. concentration [5, 7]: 49.30 mg/L | T3M40° C. concentration [5, 7]: 50.20 mg/L | Unsterilized T0 concentration ([5]; 800 ml (Table 10B)): 51.10 mg/L | Unsterilized T0 concentration ([5]; 800 ml (Table 11A)): 52.80 mg/L | Unsterilized T0 concentration ([5]; 800 ml (Table 11B)): 52.80 mg/L | T1M40° C. concentration [5, 8]: 50.60 mg/L | T3M40° C. concentration [5, 8]: 51.20 mg/L | Cycle 3 T0 concentration [5, 9]: 50.50 mg/L | T3M40° C. concentration [5, 9]: 50.30 mg/L | T6M40° C. concentration [5, 9]: 48.27 mg/L | Cycle 4 T0 concentration [5, 10]: 50.40 mg/L | T3M40° C. concentration [5, 10]: 51.00 mg/L | T6M40° C. concentration [5, 10]: 49.35 mg/L

cyanocobalamin [B12 CC]
detection of cyanocobalamin after 6 months ([5]; standard PN glucose solution, Cycles 1 and 2 (steam sterilization), FIG. 4): no cyanocobalamin can be detected | detection of cyanocobalamin ([1]; T3M40° C. (storage for 3 months at 40° C.)): no more cyanocobalamin can be detected

C[Se]CC[C@H](N)C(=O)O [selenomethionine]
selenium concentration during storage [2]: remained stable
